In ChEMBL document CHEMBL2074047, “Functional characterization of mouse cation transporter mOCT2 compared with mOCT1” (Biochem Biophys Res Commun, 2002):

T1: Solute carrier family 22 member 1 (Mus musculus, UniProt O08966)
T1 sequence (O08966 whole entry): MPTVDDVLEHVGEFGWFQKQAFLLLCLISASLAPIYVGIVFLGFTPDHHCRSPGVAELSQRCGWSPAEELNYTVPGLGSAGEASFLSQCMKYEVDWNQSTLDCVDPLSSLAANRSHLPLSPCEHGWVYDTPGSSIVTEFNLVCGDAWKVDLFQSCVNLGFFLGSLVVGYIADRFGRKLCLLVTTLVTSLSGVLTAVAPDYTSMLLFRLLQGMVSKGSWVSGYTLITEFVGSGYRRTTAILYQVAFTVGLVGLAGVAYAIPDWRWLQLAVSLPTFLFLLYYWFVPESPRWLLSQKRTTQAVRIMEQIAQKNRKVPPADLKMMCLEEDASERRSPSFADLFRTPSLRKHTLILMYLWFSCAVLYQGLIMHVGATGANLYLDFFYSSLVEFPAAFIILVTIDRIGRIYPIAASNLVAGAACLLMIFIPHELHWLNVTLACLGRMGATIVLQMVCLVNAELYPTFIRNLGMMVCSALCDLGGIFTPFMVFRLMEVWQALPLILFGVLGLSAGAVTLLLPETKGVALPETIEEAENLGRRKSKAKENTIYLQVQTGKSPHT

T2: Solute carrier family 22 member 2 (Mus musculus, UniProt O70577)
T2 sequence (O70577 whole entry): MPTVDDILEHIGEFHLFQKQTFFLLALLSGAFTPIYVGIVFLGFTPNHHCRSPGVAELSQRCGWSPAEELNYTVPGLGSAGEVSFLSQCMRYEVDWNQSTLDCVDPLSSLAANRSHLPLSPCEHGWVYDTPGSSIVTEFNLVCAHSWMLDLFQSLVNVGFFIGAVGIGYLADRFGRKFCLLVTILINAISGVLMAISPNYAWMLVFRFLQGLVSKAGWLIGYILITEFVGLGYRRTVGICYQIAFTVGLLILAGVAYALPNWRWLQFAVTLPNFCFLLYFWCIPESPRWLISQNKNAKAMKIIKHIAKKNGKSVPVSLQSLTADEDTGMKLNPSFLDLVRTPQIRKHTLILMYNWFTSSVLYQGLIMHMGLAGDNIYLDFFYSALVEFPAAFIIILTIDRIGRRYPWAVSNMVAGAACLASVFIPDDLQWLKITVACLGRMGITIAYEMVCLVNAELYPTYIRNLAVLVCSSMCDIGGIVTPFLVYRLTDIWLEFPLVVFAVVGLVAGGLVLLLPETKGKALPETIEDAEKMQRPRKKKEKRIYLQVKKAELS

B1: Solute carrier family 22 member 1 (Mus musculus) (protein)
chain: T1 sequence (O08966 whole entry)
B2: Solute carrier family 22 member 2 (Mus musculus) (protein)
chain: T2 sequence (O70577 whole entry)

How the values were obtained:
[1] = target: T1, Solute carrier family 22 member 1; assay: (§1) TP_TRANSPORTER: inhibition of MPP+ uptake (MPP+: 1 uM) in Xenopus laevis oocytes; format: functional, cell-based, Oocyte
[2] = target: T2, Solute carrier family 22 member 2; assay: as §1; format: functional, cell-based, Oocyte
[3] = substrate: C[n+]1ccc(-c2ccccc2)cc1; assay: TP_TRANSPORTER: uptake in Xenopus laevis oocytes; format: functional, cell-based, Oocyte
[4] = substrate: CC[N+](CC)(CC)CC; assay: cells, lysate or membranes named

| Molecule | IC50 [1] | IC50 [2] | Km [3] | Km [4] |
| --- | --- | --- | --- | --- |
| CC[N+](CC)(CC)CC [TETRYLAMMONIUM] | 0.54 µM | 3.5 µM |  |  |
| CNC(=O)c1cccnc1 [NICOTINYL METHYLAMIDE] | 7340 µM | 13700 µM |  |  |
| C=C[C@H]1C[N@@]2CC[C@H]1C[C@H]2[C@H](O)c1ccnc2ccc(OC)cc12 [QUININE] |  | 2.8 µM |  |  |
| CN/C(=N/CCSCc1nc[nH]c1C)NC#N [CIMETIDINE] | 0.59 µM | 8 µM |  |  |
| C[N+](C)(C)CCO [CHOLINE] | 55 µM | 217 µM |  |  |
| CCN(CC)CCNC(=O)c1ccc(N)cc1 [PROCAINAMIDE] | 3.9 µM | 312 µM |  |  |
| B1 |  |  | 10 µM |  |
| B2 |  |  | 24 µM | 35.7 µM |
